These results are taken from patent US20180000778A1, “SMALL MOLECULE ANTAGONISTS OF DUSP5 AND METHODS OF USE” (THE MEDICAL COLLEGE OF WISCONSIN, INC., priority 2015, published 2018).

Each structure is given as a SMILES string. “And” between values parts separate entries of the source, which are not always exact repeats. Equal values may be shown once.

Series [1] relates to normal vasculature in a developing embryo. Briefly: Effect on normal vasculature in a developing embryo.
The next series has as its target mutant DUSP5 (Homo sapiens, UniProt Q16690, S147P). The series is described as follows: Restoration of mutant DUSP5 function.
For series [2], the target named is T1, GST-tagged full length DUSP5 (Homo sapiens, UniProt Q16690).
T1 construct: GST-tagged full length DUSP5, when pNPP was used as a substrate
Briefly: pNPP assay with GST-tagged full length DUSP5. Format: biochemical. The settings on record: full length DUSP5, pNPP as substrate; listed as CSD3-2320.

Series [3] is described as follows: Aggregation of compounds (nephelometry; detergent treatment). Format: physicochemical. How it is done: Nephelometry is a technique for measuring the relative aggregation of particles in solution, based on the light-scattering properties of molecular aggregates (30). To explore the ability of the chemicals studied herein to form aggregates, which can lead to artifactual inhibition effects, nephelometry was performed. Compounds were tested for aggregation in 96-well plates using a buffer containing 100 mM Tris base, 100 mM sodium chloride, and 5 mM magnesium chloride at pH 7.5. Each compound analyzed in these experiments contained concentrations of compound ranging from 10-100 μM, recorded in quadruplet. Each plate was analyzed at two separate gain values of 52 and 72. Data were collected using a BMG NEPHELOstar Plus, equipped with a 635 nm laser.
To investigate whether Suramin aggregates in solution, a property often investigated with small molecules, we performed detergent treatment assays. […] NTS and Suramin were compared using DUSP5 PD IC50 assays performed with and without detergent. […] We concluded that Suramin forms aggregates in vitro which can lead to non-specific protein inhibition effects. Beyond any adverse implications for repurposing Suramin in this project, the aggregation phenomenon raises more global concerns regarding the current clinical use of Suramin, and may in part explain some of the known toxicity associated with Suramin (32).

For a further series, the target named is T2, PTPN1 (Homo sapiens, UniProt P18031).
T2 sequence (P18031 1-435): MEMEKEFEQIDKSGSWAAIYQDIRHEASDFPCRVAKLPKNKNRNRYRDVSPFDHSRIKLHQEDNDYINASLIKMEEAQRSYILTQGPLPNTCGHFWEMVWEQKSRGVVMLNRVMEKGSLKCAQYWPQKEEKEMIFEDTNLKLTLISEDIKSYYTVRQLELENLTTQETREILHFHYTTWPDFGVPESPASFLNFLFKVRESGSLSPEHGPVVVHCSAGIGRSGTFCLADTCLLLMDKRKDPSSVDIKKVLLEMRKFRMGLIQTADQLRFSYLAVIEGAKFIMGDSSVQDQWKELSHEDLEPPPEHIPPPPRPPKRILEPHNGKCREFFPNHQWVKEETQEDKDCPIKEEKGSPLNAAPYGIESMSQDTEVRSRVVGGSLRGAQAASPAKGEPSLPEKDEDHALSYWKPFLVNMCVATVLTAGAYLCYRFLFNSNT
Briefly: Phosphatase inhibition profiles (Table 4), initial rates. Type of series: biochemical.

Another series deals with T3, DUSP5 (PD)-WT (Homo sapiens, UniProt Q16690).
T3 construct: hexa-histidine (N); made in house; host or cells: E. coli BL21(DE3)
T3 sequence (Q16690 178-319): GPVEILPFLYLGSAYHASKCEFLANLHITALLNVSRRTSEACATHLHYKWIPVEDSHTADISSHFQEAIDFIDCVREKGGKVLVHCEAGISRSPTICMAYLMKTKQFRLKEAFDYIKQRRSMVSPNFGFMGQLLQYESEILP
The description is as above. Type of series: biochemical. To be noted: using ERK2 as substrate, read-out: IC50 DUSP5 (PD)-WT (mean ± SE).

T1 sequence (Q16690 whole entry): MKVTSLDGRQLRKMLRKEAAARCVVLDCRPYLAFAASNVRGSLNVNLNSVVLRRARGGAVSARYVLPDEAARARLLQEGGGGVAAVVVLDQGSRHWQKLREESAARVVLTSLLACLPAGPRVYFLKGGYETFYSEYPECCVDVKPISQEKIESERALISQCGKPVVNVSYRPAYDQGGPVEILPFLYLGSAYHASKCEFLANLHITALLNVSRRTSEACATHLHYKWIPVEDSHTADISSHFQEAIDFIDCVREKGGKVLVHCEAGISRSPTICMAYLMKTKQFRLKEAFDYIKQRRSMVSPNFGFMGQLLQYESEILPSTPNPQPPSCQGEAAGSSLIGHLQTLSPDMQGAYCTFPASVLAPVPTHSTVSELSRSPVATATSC
Sequence of mutant DUSP5 (Q16690 whole entry S147P): as the sequence (Q16690 whole entry) above, with S147P counted along it

With `O=S(=O)([O-])c1ccc2[nH]c3c(S(=O)(=O)[O-])cc(S(=O)(=O)[O-])cc3c2c1.[Na+].[Na+].[Na+]` [RR505, Carbazole-1,3,6-trisulfonic acid, Trisodium Salt], the “effect on normal vasculature” value in series [1] is given as “does not appear to affect normal vasculature”. Besides, the “effect on mutant DUSP5 function” value on mutant DUSP5 is given as “appears to restore mutant DUSP5's function”.
By IC50 is commonly meant the concentration needed to halve the response being measured. Regarding `O=S(=O)(O)c1cc(O)c2c(S(=O)(=O)O)cccc2c1` [RR527], the half-inhibitory concentration (IC50) was 563 µM and 561 µM in series [2]; above 1000 µM at DUSP5 (PD)-WT. In addition, in series [3], the aggregation entry is recorded as “no propensity to aggregate”. Further, the “IC50 PTPN1 (mean ± SE)” value on PTPN1 is given as “Does not inhibit”.
